According to US20220387403A1, “COMPOUNDS, COMPOSITIONS AND METHODS FOR TREATING NASH, NAFLD, AND OBESITY” (CVI Pharmaceuticals Limited, priority 2019, published 2022):
“Also recorded” adds a separate entry of the source.

What was measured:
LDLR mRNA = LDLR mRNA expression in HepG2 cells, quantitative real-time RT-PCR; assay type: cell-based, human; conditions: 24 hours; for Activity on LDLR mRNA at 10 uM (fold of control) / Activity on LDLR mRNA at 40 uM (fold of control): mean ± s.d.
Experimental: Activities of some compounds of Formulas I, II, III, and IV on LDLR mRNA expression were determined. HepG2 cells were treated with new compounds individually at a dose less than or equal to 10 μM for 24 hours. Total RNA was harvested for quantitative real-time RT-PCR analysis using the method described in Example 16B. […] In these experiments, berberine chloride was included for comparison. […]
Total RNA was harvested for quantitative real-time RT-PCR analysis using method described in Examples 16B.
(§1) The effects of 23 compounds on the mRNA expressions of LDLR and PCSK9 were examined using quantitative real-time RT-PCR assays. HepG2 cells were treated with various compounds at 10 and 40 uM concentrations for 24 hours. Total RNA was isolated and 2 μg was used to generate cDNA in a reaction containing random primers and M-MLV at 37° C. for 1 h in a volume of 25 μl. Real-time PCR was performed on the cDNA using MCEP REALPLEX 2 SYSTEM (Eppendorf) and Universal MasterMix (Applied Biosystems). Human LDLR, PCSK9, and GAPDH Pre-Developed TaqMan Assay Reagents (Applied Biosystems) were used to assess the levels of mRNA expressions in HepG2. The levels of LDLR and PCSK9 mRNA were normalized to that of GAPDH. Each RNA samples was assayed in duplicate. The fold activity was calculated by dividing mRNA abundance in compound treated cells with that of control.

PCSK9 mRNA = PCSK9 mRNA expression in HepG2 cells, quantitative real-time RT-PCR; assay type: cell-based, human; conditions: 24 hours; for Activity on PCSK9 mRNA reduction at 40 uM (fold of control) / Activity on PCSK9 mRNA reduction at 10 uM (fold of control): mean ± s.d.
Experimental: The time-dependent effects of compounds of Formula I, II, III, and IV on the upregulation of LDLR mRNA and the inhibition of PCSK9 mRNA expression were examined (Horton J D, Cohen J C, Hobbs H H. “Molecular biology of PCSK9: its role in LDL metabolism” TRENDS in Biochemical Sciences 2007; 32:71-77). HepG2 cells were treated with new compounds individually at 20 uM dose for 1 day, 2 day, and 3 days. Total RNA was isolated and 2 μg was used to generate cDNA in a reaction containing random primers and M-MLV at 37° C. for 1 hour in a volume of 25 μl. Real-time PCR was performed on the cDNA using MCEP REALPLEX 2 SYSTEM (Eppendorf) and Universal MasterMix (Applied Biosystems). Human LDLR, PCSK9, and GAPDH Pre-Developed TaqMan Assay Reagents (Applied Biosystems) were used to assess the levels of mRNA expressions in HepG2. The levels of LDLR mRNA or PCSK9 mRNA were normalized to that of GAPDH. Each RNA samples was assayed in triplicate. The abundance of LDLR mRNA or PCSK9 mRNA in untreated cells was defined as 1, and the amounts of LDLR mRNA or PCSK9 from compound-treated cells were plotted relative to that value (FIG. 10). The data shown are mean±s.d.
Total RNA was harvested for quantitative real-time RT-PCR analysis using method described in Examples 16B. The fold activity was derived by dividing the amount of normalized LDLR or PCSK9 mRNA in compound-treated cells over the amount of LDLR or PCSK9 mRNA in untreated control cells.
as §1

NASH hamster model = assay: Free-choice diet-induced NASH hamster model; assay type: in vivo; conditions: for NAS score / fibrosis / hepatocyte ballooning: C128 100 mg/kg, elafibranor 15 mg/kg, orally QD for 5 weeks
Experimental: In a free-choice diet-induced NASH hamster model, hamsters were fed a free choice diet (free choice between a chow diet with normal tap water or a high fat/cholesterol diet (Safe Diets) with 10% fructose enriched tap water) for up to 20 weeks (15 weeks diet and 5 weeks treatment). After 15 weeks of diet, hamsters were randomized into 3 homogenous groups (n=10/group) and were treated with vehicle, compound 128 (C128) at 100 mg/kg, or PPAR dual agonist elafibranor 15 mg/kg orally QD for 5 weeks. […] The study results are illustrated by FIGS. 17 to 19.

NAFLD hamster model = assay: High fat and high cholesterol diet induced NAFLD hamster model; assay type: in vivo; conditions: 4 weeks
Experimental: In a high fat and high cholesterol diet (HFHCD) induced non-alcoholic fat liver disease (NAFLD) hamster model, hamsters were fed a HFHCD for two weeks then treated for 4 weeks with C128 at 10 mg/kg, 20 mg/kg and 40 mg/kg, along with fenofibrate at 50 mg/kg as a positive control. Serum lipids and liver enzymes were measured using standard techniques. Liver tissue histopathology with Oil-red O staining and H&E staining were also performed.
In a high fat and high cholesterol diet (HFHCD) induced NAFLD hamster model, hamsters were fed a HFHCD for two weeks then treated for 4 weeks with C127 at 80 mg/kg or with fenofibrate 50 mg/kg.

[1] = 100 mg/kg orally QD for 5 weeks

| Compound | Activity on LDLR mRNA at 10 uM (fold of control) (LDLR mRNA) | Activity on LDLR mRNA at 40 uM (fold of control) (LDLR mRNA) | Activity on PCSK9 mRNA reduction at 40 uM (fold of control) (PCSK9 mRNA) | NAS score (NASH hamster model) | fibrosis (NASH hamster model) | hepatocyte ballooning (NASH hamster model) | Activity on PCSK9 mRNA reduction at 10 uM (fold of control) (PCSK9 mRNA) | further results |
| --- | --- | --- | --- | --- | --- | --- | --- | --- |
| COc1cc2c(cc1OC)C1Cc3ccc(OC)c(OS(=O)(=O)c4ccccc4)c3CN1CC2 (stereo not shown) [Compound 91, 2,3,10-trimethoxy-5,6,7,8,13,13a-hexahydroisoquinolino[2,1-b]isoquinolin-9-yl benzenesulfonate] | – | – | – | – | – | – | – | LDLR mRNA expression vs concentration (in words) (LDLR mRNA; FIG. 15A): dose-dependently increases; PCSK9 mRNA expression vs concentration (in words) (PCSK9 mRNA; FIG. 15B): inhibits |
| COc1ccc2c(c1)CCN1Cc3c(ccc(OC)c3OS(=O)(=O)c3cccc(F)c3)CC21 (stereo not shown) [Compound 128, 3,10-dimethoxy-5,6,7,8,13,13a-hexahydroisoquinolino[2,1-b]isoquinolin-9-yl 3-fluorobenzenesulfonate] | 7.52 ± 0.26 fold of control | 13.36 ± 0.46 fold of control | 0.86 ± 0.029 fold of control | significant reduction | significantly lowered; also recorded: not detected | significantly lowered | – | inflammation score (NASH hamster model; [1]): trend towards lower; steatosis score (NASH hamster model; [1]): trend towards lower; lipid droplets in the hepatocytes and cellular inflammation (H&E) (NAFLD hamster model; 20 mg/kg and 40 mg/kg groups): alleviated to varying degrees; hepatocyte lipid droplet, hepatocyte ballooning and cellular inflammation (H&E) (NAFLD hamster model; 40 mg/kg group): significantly reduced; circulating cholesterol and triglycerides (serum TC, LDL-C, TG) (NAFLD hamster model; C128 10, 20 and 40 mg/kg): significantly reduced; diet induced elevations of liver enzymes (ALT, AST, ALP) (NAFLD hamster model; C128 10, 20 and 40 mg/kg): significantly reduced; fat accumulation in liver tissues (NAFLD hamster model; C128 10, 20 and 40 mg/kg): significantly reduced |
| COc1ccc2c(c1OS(=O)(=O)c1cccc(F)c1)CN1CCc3cc4c(cc3C1C2)OCCO4 (stereo not shown) [Compound 129, 11-Methoxy-6,7,8,9,14,14a-hexahydro-2H,3H-1,4-dioxano[5,6-g]isoquinolino[3,2-a]isoquinolin-10-yl 3-fluorobenzenesulfonate] | 2.49 ± 0.18 fold of control | 1.99 ± 0.13 fold of control | 1.68 ± 0.41 fold of control | – | – | – | 1.57 ± 0.07 fold of control | – |
| COc1ccc2c(c1OS(=O)(=O)c1cccc(F)c1)CN1CCc3cc(C)ccc3C1C2 (stereo not shown) [Compound 130, 10-Methoxy-3-methyl-5,6,7,8,13,13a-hexahydroisoquinolino[2,1-b]isoquinolin-9-yl 3-fluroobenzenesulfonate] | 4.29 ± 0.65 fold of control | 9.00 ± 1.49 fold of control | – | – | – | – | 2.11 ± 0.11 fold of control | – |
| COc1cc2c(cc1OCCO)C1Cc3ccc(OC)c(OS(=O)(=O)c4ccccc4)c3CN1CC2 (stereo not shown) [Compound 143, 2-(2-hydroxyethoxy)-3,10-dimethoxy-5,6,7,8,13,13a-hexahydroisoquinolino[2,1-b]isoquinolin-9-yl benzenesulfonate] | 1.87 ± 0.03 fold of control | 14.97 ± 1.68 fold of control | – | – | – | – | 1.09 ± 0.09 fold of control | – |
| CSc1ccc(C(=O)/C=C/c2cc(C)c(OC(C)(C)C(=O)O)c(C)c2)cc1 [elafibranor, reference compound] | – | – | – | significant reduction | reduced fibrosis, although to a lesser degree | reduced | – | – |
